# Test results from patent US12134594B2, “Composition and application thereof as antitumor drug” (Guangdong Jianersheng Pharmaceutical Technology Co., Ltd., priority 2018, dated 2024).
# What was measured:
# rats = test: acute oral lethal dose (LD50) in rats; assay type: in vivo, rat
# Text: (§1) According to the technical solutions provided by the present disclosure, the disclosure has the following beneficial effects: • 1. The novel compound in the composition has a high chelating effect on the platinum-based antitumor compound and toxic heavy metals. […] For example, in a test performed in a mouse model with 4T1 breast carcinoma xenografts, the composition combined treatment could better delay tumor growth and inhibit metastasis than administrating the platinum-based antitumor compound alone. • 4. […] Co-treatment using the composition could greatly reduce systemic toxicity in mice and reduce weight loss caused by administrating the platinum-based antitumor compound alone.
# mice = test: acute oral lethal dose (LD50) in mice; assay type: in vivo, mouse
# Text: as §1
# HK2 cells [1] = test: in vitro MTT cell viability assay, HK2 cells; assay type: cell-based, human
# Experimental: (§2) The cells involved in this example include a human renal proximal tubular cell line HK2 ([…]2190), a pig proximal tubular cell line LLC-PK1 ([…] 101) and a mouse breast cancer cell line 4[…]2539), which were all purchased from American Type Culture Collection. LLC-PK1 cells were cultured in Dulbecco modified Eagle's medium (DMEM), HK2 cells were cultured in DMEM/F12 medium, and 4T1 cells were cultured in RPMI 1640 medium. All cell media were supplemented with 10% FBS, 100 units/ml penicillin and 100 […]. The cell lines were incubated at 37° C. in a 5% CO2 atmosphere and subcultured twice a week. 3.2 In vitro cell viability assay The HK2 cells and the LLC-PK1 cells were treated with trypsin and inoculated in a 100 μL medium in a 96-well plate at a density of 10,000 cells/well. The cells were incubated for 24 h before treatment. To examine the toxicity of the novel compound, the cells were treated with different doses of the novel compound for 24 h. […] The medium was then changed, and the cells were treated with different doses of the novel compound for 48 h. After treatment, cell viability was measured by an MTT assay. 10 μL of a 12 mM MTT (3-(4,5-dimethylthiazol-2-yl)-2,5-diphenyltetrazolium bromide) stock solution was added into each well. After incubation for 4 h at 37° C., the medium was removed; 100 μL of dimethyl sulfoxide (DMSO) was added into each well, and then the plate was incubated for 10 min at 37° C. The plate was shaken in a plate oscillator, and a plate reader (Bio-Tek) was used to measure the absorbance at 570 nm.
# LLC-PK1 cells = test: in vitro MTT cell viability assay, LLC-PK1 cells; assay type: cell-based, pig
# Experimental: as §2
# HK2 cells [2] = test: platinum content in HK2 cells by ICP-MS; assay type: cell-based, human
# Experimental: The amount of platinum in the cells was determined by an IPC-MS assay.
# Platinum concentration was 8.33 ng/10^6 cells. […] Platinum concentration in the HK2 cells dropped by 38.0% to 5.16 ng/10^6 cells as a result.
# [3] = blood BUN and creatinine (kidney injury markers) in 4T1 mouse model; assay type: in vivo; conditions: 3 weeks
# Experimental: The control group was intraperitoneally (i.p.) administrated with 0.9% normal saline. […] All mice were treated for 3 weeks.
# An EDTA tube was used to collect whole blood for a complete blood count (CBC) test. Plasma was collected by centrifugation blood collected in a heparin-coated tube. The plasma was used to carry out tests and analyses including CBC and a blood chemical test; plasma BUN and creatinine level were markers of kidney injury.
# A 4T1 breast cancer mouse model was used to evaluate the antitumor ability and protective effect of the novel compound. […] When the novel compound was used for intervention, BUN level dropped by 46% to 47.6 mg/dl.
# [4] = kidney histopathology (HE) in 4T1 mouse model; assay type: in vivo; conditions: 3 weeks
# Experimental: The control group was intraperitoneally (i.p.) administrated with 0.9% normal saline. […] All mice were treated for 3 weeks. Histopathological examination of mouse tissues: histopathological changes of the kidney were examined by a 4 μm-thick deparaffinized section stained with hematoxylin and eosin (HE). To evaluate tubular damages, dilation, necrosis, apoptosis, and cast formation of renal tubules were assessed via 10 different fields of view (Zeiss Axio imager electrofluorescence microscope) at the cortical medullary junction of the kidney.
# [5] = metal and platinum amount in kidney by ICP-MS; assay type: in vivo, mouse
# Experimental: The control group was intraperitoneally (i.p.) administrated with 0.9% normal saline. […] All mice were treated for 3 weeks. The kidney was sliced, weighed and dissolved in 70% HNO3; blood plasma was diluted with 70% HNO3. The sample was heated by a 100° C. hot block until thoroughly evaporated. All solid residues were re-dissolved in 5 mL of 2% HNO3. Platinum was quantified by inductively coupled plasma mass spectrometry (ICP-MS).
# [6] = after administration of cisplatin and GMDTC
smiles,measurement,setting,value
"CSCC[C@@H](C(=O)[O-])N(C[C@H](O)[C@@H](O)[C@H](O)[C@H](O)CO)C(=S)[S-].[Na+].[Na+] [GMDTC, sodium (S)-2-(dithiocarboxylate ((2S,3R,4R,5R)-2,3,4,5,6-pentahydroxyhexyl)amino)-4-(methylthio)butyrate]",acute oral lethal dose (LD50),rats,"greater than 10,000 mg/kg"
same,acute oral lethal dose (LD50),mice,"greater than 10,000 mg/kg"
same,impact on viability of HK2 cells compared with blank control,"HK2 cells [1]; 1000 μM, 24 h, MTT",not significantly
same,cell viability,"HK2 cells [1]; HK2 cells pretreated with 300 μM cisplatin 30 min, then GMDTC for 48 h (FIG. 4)",60 % of that of the control group
same,cell viability,"HK2 cells [1]; HK2 cells, 50 μM cisplatin + increasing doses of novel compound, 24 h (FIG. 3A)",80%
same,IC50,"HK2 cells [1]; HK2 cells, 24 h, MTT, read-out: IC50 (toxicity, cell viability)",~8 mM
same,impact on viability of LLC-PK1 cells compared with blank control,"LLC-PK1 cells; 400 μM, 24 h, MTT",not significantly
same,cytotoxicity on co-treatment,"LLC-PK1 cells; LLC-PK1 cells, 50 μM cisplatin + novel compound, 24 h (FIG. 3B)",reduce cytotoxicity
same,IC50,"LLC-PK1 cells; LLC-PK1 cells, 24 h, MTT, read-out: IC50 (toxicity, cell viability)",~8 mM
same,drop of platinum concentration in HK2 cells,HK2 cells [2]; 50 μM cisplatin + 1000 μM novel compound vs cisplatin alone,91.5%
same,platinum concentration in HK2 cells,"HK2 cells [2]; 50 μM cisplatin co-administrated with 1000 μM novel compound, 24 h",17.2 ng/10^6 cells
same,platinum concentration in HK2 cells,"HK2 cells [2]; cisplatin exposure 30 min, then 1000 μM novel compound intervention, 48 h",5.16 ng/10^6 cells
same,drop of platinum concentration in HK2 cells,HK2 cells [2]; rescue with 1000 μM novel compound after 30 min cisplatin vs no rescue,38.0%
same,drop of BUN level,[3]; cisplatin + 500 mg/kg novel compound vs cisplatin alone,46%
same,BUN level,"[3]; mice, 5 mg/kg cisplatin twice a week + 500 mg/kg novel compound 2 h after cisplatin",47.6 mg/dL
same,kidney histopathology,"[4]; mice co-treated with cisplatin and 500 mg/kg novel compound, compared with control group",no significant difference
same,effect on amount and distribution of normal (essential) metals in the body,"[5]; mice, ICP-MS, compared with control mice (Table 1 and Table 2)",does not affect
N.N.[Cl][Pt][Cl] [cisplatin],platinum concentration in HK2 cells,"HK2 cells [2]; 50 μM cisplatin, 24 h",202.6 ng/10^6 cells
same,platinum concentration in HK2 cells,"HK2 cells [2]; cisplatin (300 μM) exposure 30 min, removed, cultured 48 h",8.33 ng/10^6 cells
same,average BUN level,"[3]; mice, 5 mg/kg cisplatin i.p. twice a week",87.9 mg/dL
same,kidney histopathology,"[4]; mice treated with 5 mg/kg cisplatin twice a week, 5 mg/kg",extensive necrosis and degeneration
same,kidney histopathology,"[4]; mice treated with 5 mg/kg cisplatin twice a week, listed as Cisplatin, 5 mg/kg",extensive necrosis and degeneration of tubule cells
same,Amount in kidney: 27Al,[5]; [6],3.93 µg/g
same,Amount in kidney: 55Mn,[5]; [6],0.92 µg/g
same,Amount in kidney: 65Cu,[5]; [6],4.13 µg/g
same,Amount in kidney: 66Zn,[5]; [6],24.4 µg/g
same,Amount in kidney: 195Pt,[5]; [6],9.841 µg/g
